Reference: patent US20060128792A1, “Deguelin as a chemopreventive agent for lung cancer” (priority 2002, published 2006)
Several values for one entry are separate records, joined by “and”; a condition that tells them apart may be missing. Identical values can stand only once.

Legend:
Type in all cases: cell-based
H661 = assay: MTT assay, growth inhibition by deguelin or deguelin derivatives; conditions: 3 days
A549 = assay: as above; conditions: A549, 3 days
H441 = assay: as above; conditions: 3 days
H226Br = assay: as above; conditions: 3 days
Sk-mes = assay: as above; conditions: 3 days
NHBE cells = assay: Apoptosis assay (TUNEL; DNA fragmentation)
Method: Apoptosis assay. Normal, premalignant, and malignant HBE cells were exposed to v various doses of deguelin for 3 days. […] Both adherent and floating cells were combined for the assessment of apoptosis using the APO-BRDU staining kit (Phoenix Flow Systems, San Diego, Calif.). Briefly, floating and attached cells dispersed with trypsin-EDTA were pelleted, washed, and fixed by 1% paraformaldehyde followed by 70% ethanol. The fixed cells were washed and incubated with DNA-labeling solution containing terminal deoxynucleotidyl transferase (TdT) reaction buffer, TdT enzyme, and bromodeoxyuridine triphosphate (Br-dUTP). Cells were rinsed, resuspended with fluorescein-PRB-I antibody solution, and analyzed by flow cytometry in the presence of PI/RNase solution. […] A dual display of DNA area (linear red fluorescence) and Br-dUTP incorporation (FITC-PRB-1) was used to determine the percentage of apoptotic cells.
The percentage of dead cells was determined by fluorescent-activated cell sorting (FACS) analysis of PI-stained nuclei. Apoptosis was also determined by the detection of nucleosomal DNA fragmentation, which was measured using the TACS apoptotic DNA Jaddering kit (Trevigen, Inc., Gaithersburg, Md.) according to the manufacturer's protocol. […] Apoptosis was analyzed using the APO-BRDU staining kit (Phoenix Flow Systems) as described above.

H1299 NSCLC cells = assay: Sensitization to chemotherapeutic agents and irradiation, MTT analysis; conditions: deguelin 100 nM 2 days; 10 nM paclitaxel, 50 nM doxorubicin or 4Gy irradiation for 1 day
Method: FIG. 10. […] Results are expressed relative to the density of untreated cells. Bars, means±SD of a representative experiment done in six identical wells from five independently performed experiments.
Additional studies were conducted to determine whether deguelin can sensitize cells resistant to a chemotherapeutic agent. H1299 NSCLC cells were incubated with deguelin (100 nM) for 2 days.

[1] = tested on: bax and bcl-2 in lung cancer cell lines; assay: Western blot of bax and bcl-2; conditions: 10^−7 M deguelin
Method: Immunoblotting. Whole cell lysates were prepared in lysis buffer (50 mM N-[2-[…]]-piperazine-N′-[2-ethanesulfonic acid] [HEPES; pH 7.5], 150 mM NaCl, 1.5 mM MgCl2, ImM EDTA, 0.2 mM EGTA, 1% NP40, 10% glycerol, 1 mM dithiothreitol (DTT), 1 mM phenylmethylsulfonyl fluoride, 20 mM sodium fluoride, 5 mM sodium orthovanadate, 10 μg/ml aprotinin, 10 μg/ml leupeptin, 2 μg/ml pepstatin, and 1 mM benzamidine) as described previously (Lee et al., 2002). Equivalent protein concentrations were resolved in sodium dodecyl sulfate-polyacrylamide gels and transferred to a nitrocellulose membrane. After the blocking of transblotted membrane in Tris-buffered saline (TBS) containing 0.05% Tween 20 (TBST) and 5% low fat milk, themembrane was incubated with primary antibody at the appropriate dilution in TBS-5% low-fat milk at 4° C. for 16 h and washed with TBST. The immunoblots were visualized using the ECL kit (Amersham, Inc., Arlington Heights, III) according to the manufacturer's directions. […]
The apoptotic effect of deguelin was further assessed in HBE cells. […] Apoptosis was analyzed by flow cytometry as described above. […] To confirm the apoptotic activity in these cells, bax and bcl-2 expression were analyzed by western blotting. […] Thus, it was determined that deguelin increases bax expression thereby inducing the apoptotic activity in lung cancer cells.

COc1cc2c(cc1OC)[C@@H]1C(=O)c3ccc4c(c3O[C@@H]1CO2)C=CC(C)(C)O4 [Deguelin]
Avg. % con (H661; deguelin 10^−6M): 0.5756 % con | MTT value, mean of replicates (unheaded line) (H661; deguelin 10^−6M): 0.0597 | MTT value, replicate (unheaded line) (H661; deguelin 10^−6M): 0.059 and 0.055 and 0.065 | Avg. % con (H661; deguelin 10^−8M): 0.60 % con | MTT value, mean of replicates (unheaded line) (H661; deguelin 10^−8M): 0.063 | MTT value, replicate (unheaded line) (H661; deguelin 10^−8M): 0.062 and 0.056 and 0.07 | Avg. % con (H661; deguelin 10^−10M): 0.80 % con | MTT value, mean of replicates (unheaded line) (H661; deguelin 10^−10M): 0.083 | MTT value, replicate (unheaded line) (H661; deguelin 10^−10M): 0.087 and 0.093 and 0.07 | Avg. % con (H661; deguelin 10^−12M): 0.86 % con | MTT value, mean of replicates (unheaded line) (H661; deguelin 10^−12M): 0.089 | MTT value, replicate (unheaded line) (H661; deguelin 10^−12M): 0.09 and 0.084 and 0.094 | Avg. % con (A549; deguelin 10^−6M): 0.13 % con | MTT value, mean of replicates (unheaded line) (A549; deguelin 10^−6M): 0.060 | MTT value, replicate (unheaded line) (A549; deguelin 10^−6M): 0.057 (2×) and 0.066 | Avg. % con (A549; deguelin 10^−8M): 0.83 % con | MTT value, mean of replicates (unheaded line) (A549; deguelin 10^−8M): 0.382 | MTT value, replicate (unheaded line) (A549; deguelin 10^−8M): 0.381 (2×) and 0.385 | Avg. % con (A549; deguelin 10^−10M): 0.88 % con | MTT value, mean of replicates (unheaded line) (A549; deguelin 10^−10M): 0.408 | MTT value, replicate (unheaded line) (A549; deguelin 10^−10M): 0.375 and 0.422 and 0.427 | Avg. % con (A549; deguelin 10^−12M): 0.89 % con | MTT value, mean of replicates (unheaded line) (A549; deguelin 10^−12M): 0.411 | MTT value, replicate (unheaded line) (A549; deguelin 10^−12M): 0.416 and 0.404 and 0.412 | Avg. % con (H441; deguelin 10^−6M): 0.82 % con | MTT value, mean of replicates (unheaded line) (H441; deguelin 10^−6M): 0.181 | MTT value, replicate (unheaded line) (H441; deguelin 10^−6M): 0.18 (2×) and 0.183 | Avg. % con (H441; deguelin 10^−8M): 0.94 % con | MTT value, mean of replicates (unheaded line) (H441; deguelin 10^−8M): 0.207 | MTT value, replicate (unheaded line) (H441; deguelin 10^−8M): 0.209 and 0.203 and 0.21 | Avg. % con (H441; deguelin 10^−10M): 1.01 % con | MTT value, mean of replicates (unheaded line) (H441; deguelin 10^−10M): 0.223 | MTT value, replicate (unheaded line) (H441; deguelin 10^−10M): 0.21 and 0.231 and 0.229 | Avg. % con (H441; deguelin 10^−12M): 1.12 % con | MTT value, mean of replicates (unheaded line) (H441; deguelin 10^−12M): 0.247 | MTT value, replicate (unheaded line) (H441; deguelin 10^−12M): 0.234 and 0.259 and 0.249 | Av. % con (H226Br; deguelin 10^−6M): 0.82 % con | MTT value, mean of replicates (unheaded line) (H226Br; deguelin 10^−6M): 0.266 | MTT value, replicate (unheaded line) (H226Br; deguelin 10^−6M): 0.264 (2×) and 0.271 | Av. % con (H226Br; deguelin 10^−8M): 0.85 % con | MTT value, mean of replicates (unheaded line) (H226Br; deguelin 10^−8M): 0.276 | MTT value, replicate (unheaded line) (H226Br; deguelin 10^−8M): 0.296 and 0.273 and 0.259 | Av. % con (H226Br; deguelin 10^−10M): 1.02 % con | MTT value, mean of replicates (unheaded line) (H226Br; deguelin 10^−10M): 0.330 | MTT value, replicate (unheaded line) (H226Br; deguelin 10^−10M): 0.321 and 0.329 and 0.34 | Av. % con (H226Br; deguelin 10^−12M): 0.96 % con | MTT value, mean of replicates (unheaded line) (H226Br; deguelin 10^−12M): 0.310 | MTT value, replicate (unheaded line) (H226Br; deguelin 10^−12M): 0.3 and 0.318 and 0.313 | Avg. % con (Sk-mes; deguelin 10^−6M): 0.45 % con | MTT value, mean of replicates (unheaded line) (Sk-mes; deguelin 10^−6M): 0.121 | MTT value, replicate (unheaded line) (Sk-mes; deguelin 10^−6M): 0.107 and 0.135 and 0.122 | Avg. % con (Sk-mes; deguelin 10^−8M): 0.79 % con | MTT value, mean of replicates (unheaded line) (Sk-mes; deguelin 10^−8M): 0.211 | MTT value, replicate (unheaded line) (Sk-mes; deguelin 10^−8M): 0.207 and 0.209 and 0.216 | Avg. % con (Sk-mes; deguelin 10^−10M): 0.92 % con | MTT value, mean of replicates (unheaded line) (Sk-mes; deguelin 10^−10M): 0.247 | MTT value, replicate (unheaded line) (Sk-mes; deguelin 10^−10M): 0.243 and 0.223 and 0.274 | Avg. % con (Sk-mes; deguelin 10^−12M): 0.96 % con | MTT value, mean of replicates (unheaded line) (Sk-mes; deguelin 10^−12M): 0.258 | MTT value, replicate (unheaded line) (Sk-mes; deguelin 10^−12M): 0.253 and 0.258 and 0.264 | TUNEL and DNA fragmentation in NHBE cells (NHBE cells): neither TUNEL-positive cell population nor DNA fragmentation | sensitization to chemotherapeutic agents (H1299 NSCLC cells): sensitizes cancer cells to chemotherapeutic agents | Bcl-2 expression [1]: not found to be regulated | bax expression [1]: Increased
